Data on 14 compounds can be found in patent US9944654B2, “Nargenicin compounds and uses thereof as antibacterial agents” (priority 2014, dated 2018).

Each structure is given as a SMILES string. In brackets after ≈: the same amount, converted by molar mass. Read-outs that look alike come from different tables or passages of the source. Where only a bound is given, the exact number is not on record here.

By IC50 is commonly meant the midpoint of a concentration-inhibition curve.

The test system of assay [1] is Staphylococcus aureus MB6266 (MRSA COL). Nature of the assay: Nargenicin antibacterial assay (MIC), S. aureus. The format is cell-based. The following applies: Staphylococcus aureus, MRSA, read-out: S. aureus COL (MIC), MHII broth + 50% human serum; * = some reduction of growth versus control at […].
In assay [2] the target is T1, S. aureus DnaE (DNA polymerase III α-subunit homolog from Staphylococcus aureus) (Staphylococcus aureus, UniProt Q5HF71).
T1 construct: SaDnaE (S. aureus DnaE residues 1-1065); 6xHis (N); made in house; host or cells: E. coli BL21-AI
T1 sequence (Q5HF71 1-1065): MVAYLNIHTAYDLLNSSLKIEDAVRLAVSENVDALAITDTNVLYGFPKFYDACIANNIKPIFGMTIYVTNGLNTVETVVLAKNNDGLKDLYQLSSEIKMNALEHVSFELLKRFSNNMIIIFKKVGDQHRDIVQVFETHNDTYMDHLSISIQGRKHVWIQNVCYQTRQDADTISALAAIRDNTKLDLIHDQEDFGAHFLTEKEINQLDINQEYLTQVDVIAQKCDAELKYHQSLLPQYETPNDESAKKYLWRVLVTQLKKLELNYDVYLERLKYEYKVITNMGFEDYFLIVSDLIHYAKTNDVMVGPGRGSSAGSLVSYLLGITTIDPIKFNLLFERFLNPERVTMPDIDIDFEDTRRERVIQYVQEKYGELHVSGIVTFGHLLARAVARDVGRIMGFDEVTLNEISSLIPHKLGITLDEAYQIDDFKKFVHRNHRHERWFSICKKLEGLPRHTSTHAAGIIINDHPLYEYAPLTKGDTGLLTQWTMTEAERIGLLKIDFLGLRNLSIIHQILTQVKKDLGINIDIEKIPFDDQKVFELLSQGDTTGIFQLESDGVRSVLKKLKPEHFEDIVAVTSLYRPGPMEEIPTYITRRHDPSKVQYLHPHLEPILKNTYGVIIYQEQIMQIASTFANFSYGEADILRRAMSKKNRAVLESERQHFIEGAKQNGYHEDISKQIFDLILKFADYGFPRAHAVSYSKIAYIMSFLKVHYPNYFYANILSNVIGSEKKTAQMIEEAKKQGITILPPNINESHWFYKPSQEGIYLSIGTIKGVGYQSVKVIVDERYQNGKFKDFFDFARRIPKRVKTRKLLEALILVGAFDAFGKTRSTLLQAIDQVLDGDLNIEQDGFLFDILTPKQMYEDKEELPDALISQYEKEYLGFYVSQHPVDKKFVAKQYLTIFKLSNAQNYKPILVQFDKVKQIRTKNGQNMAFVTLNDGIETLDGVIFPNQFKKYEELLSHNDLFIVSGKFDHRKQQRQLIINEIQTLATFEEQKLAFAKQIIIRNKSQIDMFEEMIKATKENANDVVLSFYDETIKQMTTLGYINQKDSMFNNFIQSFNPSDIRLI
Nature of the assay: biochemical. It counts as biochemical. A digest of the protocol:
(§1)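 3H-dTTP (0.011 mM) incorporation into DNase I-activated calf thymus DNA, alongside the other three dNTPs at 0.025 mM, measured by filter counting after TCA precipitation. Reactions ran 30 min at 30° C., started with purified N-His DnaE: 0.8 μg/ml for E. coli, 0.05 μg/ml for S. aureus.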

The test system of assay [3] is Streptococcus pneumoniae MB6357 (CL 2883). Nature of the assay: Nargenicin antibacterial assay (MIC), S. pneumoniae. It counts as cell-based. Conditions: Streptococcus pneumoniae, read-out: S. pneumoniae MB2883 (MIC), Isosensitest broth; * = some reduction of growth versus control at […].
Assay [4] deals with Pseudomonas aeruginosa MB5890 (CB1101, efflux-deleted). Put plainly: microbe, parasite or virus in culture. The format is cell-based. Conditions: Pseudomonas aeruginosa, read-out: P. aeruginosa MB5890 efflux-del (MIC), MHII broth; * = some reduction of growth versus control at […].
Assay [5] concerns Escherichia coli MB5747 (LS 883, tolC). Nature of the assay: microbe, parasite or virus in culture. It counts as cell-based. The following applies: Escherichia coli, read-out: E. coli LS883 tolC (MIC), MHII broth; * = some reduction of growth versus control at […].
In assay [6] the target is T2, E. coli DnaE (DNA polymerase III α-subunit from Escherichia coli) (Escherichia coli, UniProt P10443).
T2 construct: EcDnaE (E. coli DnaE residues 1-1160); 6xHis (N); made in house; host or cells: E. coli BL21(DE3)
T2 sequence (P10443 whole entry, the tested form may be a part): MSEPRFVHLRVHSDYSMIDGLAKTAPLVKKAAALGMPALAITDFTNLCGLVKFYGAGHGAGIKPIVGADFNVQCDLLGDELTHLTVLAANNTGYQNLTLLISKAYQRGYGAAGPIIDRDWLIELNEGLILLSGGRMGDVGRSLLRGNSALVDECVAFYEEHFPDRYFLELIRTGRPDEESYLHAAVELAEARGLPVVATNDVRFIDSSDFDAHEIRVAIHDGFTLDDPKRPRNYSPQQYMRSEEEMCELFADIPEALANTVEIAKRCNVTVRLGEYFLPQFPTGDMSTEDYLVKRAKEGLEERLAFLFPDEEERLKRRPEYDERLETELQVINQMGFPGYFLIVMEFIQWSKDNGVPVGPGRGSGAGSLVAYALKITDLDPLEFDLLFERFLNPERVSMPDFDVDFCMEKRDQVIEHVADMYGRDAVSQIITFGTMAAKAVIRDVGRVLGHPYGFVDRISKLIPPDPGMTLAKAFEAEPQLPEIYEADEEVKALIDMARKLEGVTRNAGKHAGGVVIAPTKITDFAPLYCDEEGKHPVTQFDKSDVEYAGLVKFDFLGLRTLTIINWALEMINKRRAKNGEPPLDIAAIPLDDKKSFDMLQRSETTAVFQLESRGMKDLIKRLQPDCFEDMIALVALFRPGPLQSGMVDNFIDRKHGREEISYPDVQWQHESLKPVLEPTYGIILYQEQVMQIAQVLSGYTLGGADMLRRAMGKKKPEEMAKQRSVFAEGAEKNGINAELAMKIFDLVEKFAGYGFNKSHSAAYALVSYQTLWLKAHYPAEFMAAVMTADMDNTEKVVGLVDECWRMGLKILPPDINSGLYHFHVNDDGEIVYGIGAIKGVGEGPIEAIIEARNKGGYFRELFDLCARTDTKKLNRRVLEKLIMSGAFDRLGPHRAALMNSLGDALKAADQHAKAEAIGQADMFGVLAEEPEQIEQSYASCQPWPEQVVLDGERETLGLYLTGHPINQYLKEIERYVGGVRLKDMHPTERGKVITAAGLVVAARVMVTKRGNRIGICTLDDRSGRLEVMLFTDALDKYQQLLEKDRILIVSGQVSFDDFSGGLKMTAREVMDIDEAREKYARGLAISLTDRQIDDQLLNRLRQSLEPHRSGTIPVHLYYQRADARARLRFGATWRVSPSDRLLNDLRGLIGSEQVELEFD
Put plainly: In vitro DnaE single enzyme assay (E. coli). The format is biochemical. A digest of the protocol:
as §1

Setting [7] is: read-out: E. coli DnaE IC50 (converted).
[8] abbreviates: read-out: S. aureus DnaE IC50 (converted).

`CO[C@H]1C[C@H]2C=C[C@H]3[C@H]4O[C@]2(/C(C)=C/[C@@H](C)[C@@H]([C@@H](C)OC(=O)NC(=O)C(Cl)(Cl)Cl)OC1=O)[C@@H]3[C@H](OC(=O)NC(=O)C(Cl)(Cl)Cl)[C@@H](C)[C@H]4OC(=O)c1ccc[nH]1` [Example 1, (3R,4S,7S,8aS,10aR,11R,12R,13R,14R,14aS,14bS,E)-7-methoxy-1,3,13-trimethyl-6-oxo-14-(((2,2,2-trichloroacetyl)carbamoyl)oxy)-4-((R)-1-(((2,2,2-trichloroacetyl)carbamoyl)oxy)ethyl)-3,4,6,7,8,8a,10a,11,12,13,14,14 a-dodecahydro-11,14b-epoxynaphtho[2,1-e]oxecin-12-yl 1H-pyrrole-2-carboxylate]: the MIC was more than 8 µg/mL in assay [1], more than 128 µg/mL in assay [3], more than 128 µg/mL in assay [4] and more than 8 µg/mL in assay [5]. Also, the values for the IC50 in assay [2] (S. aureus DnaE IC50) and in assay [6] (E. coli DnaE IC50) were 34.7 µM and 67.2 µM, respectively.
Take `CO[C@H]1C[C@H]2C=C[C@H]3[C@H]4O[C@]2(/C(C)=C/[C@H](C)[C@@H](c2ccccc2)OC1=O)[C@@H]3[C@H](O)[C@@H](C)[C@H]4OC(=O)c1ccc[nH]1` [Example 53]: the MIC in assay [1], in assay [3], in assay [4] and in assay [5] was more than 128 µg/mL in each case. The IC50 is 0.183 µM in assay [2] (S. aureus DnaE IC50) and 73 µM in assay [6] (setting [7]).
As for `CO[C@H]1C[C@H]2C=C[C@H]3[C@H]4O[C@]2(/C(C)=C/[C@@H](C)[C@@H]([C@@H](C)OC(=O)NC(C)(CO)CO)OC1=O)[C@@H]3[C@H](O)[C@@H](C)[C@H]4OC(=O)c1ccc[nH]1` [Example 21], the MIC in assay [1] was determined as 16 µg/mL; in assay [3], 128 µg/mL (≈ 198 µM); in assay [4] it was 128 µg/mL (≈ 198 µM); in assay [5] it was 8 µg/mL (≈ 12.4 µM). For the same compound, the IC50 in assay [2] (S. aureus DnaE IC50) was less than 0.00928 µM; in assay [6] (setting [7]), more than 155 µM.
Turning to `CO[C@H]1C[C@H]2C=C[C@H]3[C@H]4O[C@]2(/C(C)=C/[C@@H](C)[C@@H]([C@@H](C)OC(=O)NCc2ccccc2)OC1=O)[C@@H]3[C@H](O)[C@@H](C)[C@H]4OC(=O)c1ccc[nH]1` [Example 10], the MIC in assay [1] was 8 µg/mL; in assay [3] it was more than 128 µg/mL; in assay [4], more than 128 µg/mL; in assay [5], more than 128 µg/mL. Moreover, the results for the IC50 in assay [2] (S. aureus DnaE IC50) and in assay [6] (setting [7]) were 0.0308 µM and more than 154 µM, respectively.
Turning to `CO[C@H]1C[C@H]2C=C[C@H]3[C@H]4O[C@]2(/C(C)=C/[C@@H](C)[C@@H]([C@@H](C)O)OC1=O)[C@@H]3[C@H](O)C(C)[C@@H]4NCc1ccncc1.O=C(O)C(F)(F)F` (stereo partly drawn) [Example 154], the MIC in assay [1], in assay [3], in assay [4] and in assay [5] was more than 128 µg/mL in each case. In addition, the IC50 in assay [2] (setting [8]) was 112 µM; in assay [6] (E. coli DnaE IC50), more than 160 µM.
For `CO[C@H]1C[C@H]2C=CC3C4[C@H](O)[C@@H](C)[C@@H](OC(=O)c5ccc[nH]5)[C@@H]3O[C@]42/C(C)=C/[C@@H](C)[C@@H]([C@@H](C)OC(=O)C(=O)OCc2cncn2C)OC1=O.O=C(O)C(F)(F)F` [Example 207], the MIC in assay [1] was 4 µg/mL; in assay [3] it was more than 64 µg/mL; in assay [4], 64 µg/mL; in assay [5], 4 µg/mL. Besides, the IC50 in assay [2] (S. aureus DnaE IC50) was less than 0.00754 µM; in assay [6] (setting [7]), 3.27 µM.
In the case of `COC(=O)O[C@H](C)[C@H]1OC(=O)[C@@H](OC)CC2C=C[C@H]3[C@H]4O[C@]2(/C(C)=C/[C@H]1C)[C@@H]3[C@H](O)[C@@H](C)[C@H]4OC(=O)c1ccc[nH]1` (stereo partly drawn) [Example 27], the MIC was 2 µg/mL in assay [1], 64 µg/mL (≈ 112 µM) in assay [3], more than 128 µg/mL in assay [4] and 4 µg/mL (≈ 6.97 µM) in assay [5]. Besides, the IC50 was less than 0.0105 µM in assay [2] (S. aureus DnaE IC50) and 61 µM in assay [6] (setting [7]).
For the compound `CO[C@H]1C[C@H]2C=C[C@H]3[C@H]4O[C@]2(/C(C)=C/[C@@H](C)[C@@H]([C@@H](C)O)OC1=O)[C@@H]3[C@H](O)C(C)[C@@H]4NCCN1CCCCC1.O=C(O)C(F)(F)F` (stereo partly drawn) [Example 156], the MIC in assay [1], in assay [3], in assay [4] and in assay [5] was more than 128 µg/mL in each case. Further, the IC50 was 32.5 µM in assay [2] (setting [8]) and more than 155 µM in assay [6] (E. coli DnaE IC50).
Turning to `CO[C@H]1CC2C=C[C@H]3[C@H]4O[C@]2(/C(C)=C/[C@@H](C)[C@@H]([C@@H](C)OC(=O)NCCO)OC1=O)[C@@H]3[C@H](O)[C@@H](C)[C@H]4OC(=O)c1ccc[nH]1` (stereo partly drawn) [Example 15], the MIC was 8 µg/mL in assay [1], more than 128 µg/mL in assay [3], 128 µg/mL (≈ 212 µM) in assay [4] and 4 µg/mL (≈ 6.64 µM) in assay [5]. The IC50 in assay [2] (S. aureus DnaE IC50) is less than 0.00996 µM; in assay [6] (setting [7]), approximately 183 µM.
For the compound `CO[C@H]1C[C@H]2C=C[C@H]3[C@H]4O[C@]2(/C(C)=C/[C@@H](C)[C@@H]([C@@H](C)O)OC1=O)[C@@H]3[C@H](OC(N)=O)[C@@H](C)[C@H]4O` [Example 187], the MIC is more than 128 µg/mL in assay [1], more than 128 µg/mL in assay [3], 32 µg/mL (≈ 68.7 µM) in assay [4] and 16 µg/mL (≈ 34.4 µM) in assay [5]. Also, the figures for the 50% inhibitory concentration (IC50) in assay [2] (S. aureus DnaE IC50) and in assay [6] (setting [7]) were 0.387 µM and more than 215 µM, respectively.
For the compound `COC1CC2C=CC3C4OC2(C(C)=CC(C)C(C(C)OC(=O)NCCN2CCN(C)CC2)OC1=O)C3C(O)C(C)C4OC(=O)c1ccc[nH]1` (stereo not drawn) [Example 24], the MIC was 32 µg/mL in assay [1], more than 128 µg/mL in assay [3], more than 128 µg/mL in assay [4] and 32 µg/mL (≈ 46.7 µM) in assay [5]. Besides, the IC50 is 0.00876 µM in assay [2] (setting [8]) and more than 146 µM in assay [6] (E. coli DnaE IC50).
Consider `CO[C@H]1C[C@H]2C=C[C@H]3[C@H]4O[C@]2(/C(C)=C/[C@@H](C)[C@@H]([C@@H](C)OC(=O)NCc2ccc(O)c(O)c2)OC1=O)[C@@H]3[C@H](O)[C@@H](C)[C@H]4OC(=O)c1ccc[nH]1` [Example 17], for which the MIC in assay [1] is 8 µg/mL; in assay [3], more than 128 µg/mL; in assay [4], more than 128 µg/mL; in assay [5], 8 µg/mL (≈ 11.8 µM). Moreover, the IC50 in assay [2] (S. aureus DnaE IC50) is less than 0.00881 µM; in assay [6] (setting [7]), 22 µM.
Consider `CCCCCCCCNC(=O)O[C@H](C)[C@H]1OC(=O)[C@@H](OC)C[C@H]2C=C[C@H]3[C@H]4O[C@]2(/C(C)=C/[C@H]1C)[C@@H]3[C@H](O)[C@@H](C)[C@H]4OC(=O)c1ccc[nH]1` [Example 14], for which the MIC in assay [1] was more than 128 µg/mL; in assay [3], 32 µg/mL (≈ 47.7 µM); in assay [4] it was more than 128 µg/mL; in assay [5], more than 128 µg/mL. Besides, the IC50 was 0.119 µM in assay [2] (S. aureus DnaE IC50) and 16.4 µM in assay [6] (setting [7]).
For `CO[C@H]1C[C@H]2C=C[C@H]3[C@H]4O[C@]2(/C(C)=C/[C@@H](C)[C@@H]([C@@H](C)O)OC1=O)[C@@H]3[C@H](O)C(C)[C@@H]4NCc1cccs1.O=C(O)C(F)(F)F` (stereo partly drawn) [Example 153], the MIC in assay [1], in assay [3], in assay [4] and in assay [5] was more than 128 µg/mL each time. Moreover, the IC50 in assay [2] (setting [8]) is 47.5 µM; in assay [6] (E. coli DnaE IC50) it was more than 158 µM.
